Experimental data from EP4596548A1, “NURR1 MODULATORS” (Ludwig-Maximilians-Universität, priority 2024, dated 2025).
Entries after “also recorded” stand apart in the source; their conditions may differ.

What was measured:
Nurr1 [1] = target: T1, Nurr1 (Homo sapiens, UniProt P43354); settings: Nurr1 agonism, literature values (refs. 24, 27, 28); cited from earlier work
Target sequence in this assay (P43354 whole entry): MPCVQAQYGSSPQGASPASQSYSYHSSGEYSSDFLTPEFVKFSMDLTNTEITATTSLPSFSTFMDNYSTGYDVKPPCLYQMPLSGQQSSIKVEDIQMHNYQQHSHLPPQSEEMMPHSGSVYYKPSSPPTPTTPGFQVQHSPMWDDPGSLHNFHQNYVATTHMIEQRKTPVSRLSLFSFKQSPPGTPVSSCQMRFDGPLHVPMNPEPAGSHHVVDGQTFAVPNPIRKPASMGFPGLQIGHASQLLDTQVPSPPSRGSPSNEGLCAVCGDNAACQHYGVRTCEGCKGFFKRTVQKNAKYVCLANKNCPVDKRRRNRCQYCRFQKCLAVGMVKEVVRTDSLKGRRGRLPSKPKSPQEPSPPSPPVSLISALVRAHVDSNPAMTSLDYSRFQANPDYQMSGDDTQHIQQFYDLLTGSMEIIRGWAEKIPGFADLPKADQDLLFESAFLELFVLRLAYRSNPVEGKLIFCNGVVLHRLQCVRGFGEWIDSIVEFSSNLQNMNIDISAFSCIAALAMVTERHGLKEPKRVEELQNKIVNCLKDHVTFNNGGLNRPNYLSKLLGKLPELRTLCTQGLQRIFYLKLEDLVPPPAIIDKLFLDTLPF

Nurr1 [2] = target: T1, Nurr1; assay: Ligand efficiency metrics; settings: computed according to ref. 29
Target sequence in this assay (P43354 whole entry): as above

[3] = Compound stability (observation); assay type: physicochemical; settings: printed in the EC50 column of Table 1
Nurr1 LBD = target: T2, Nurr1 LBD (Homo sapiens, UniProt P43354); assay: Isothermal titration calorimetry (ITC); assay type: binding; settings: result in words; ITC with 100 µM 29 and 30 µM protein
T2 construct: Nurr1 LBD protein (10-30 µM, expressed as described previously^21); made in house
T2 sequence (P43354 360-595 limits assumed): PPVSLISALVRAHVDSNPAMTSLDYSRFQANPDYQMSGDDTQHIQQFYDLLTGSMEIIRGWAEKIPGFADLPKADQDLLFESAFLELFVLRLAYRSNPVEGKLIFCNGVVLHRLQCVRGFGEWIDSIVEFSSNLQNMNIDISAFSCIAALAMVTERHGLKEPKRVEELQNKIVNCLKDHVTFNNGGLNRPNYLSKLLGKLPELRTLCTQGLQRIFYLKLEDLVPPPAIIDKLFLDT
Method: Isothermal Titration Calorimetry (ITC). ITC experiments were conducted on an Affinity ITC instrument (TA Instruments, New Castle, DE) at 25°C with a stirring rate of 75 rpm. Nurr1 LBD protein (10-30 µM, expressed as described previously^21) in buffer (20 mM Tris pH 7.5, 100 mM NaCl, 5% glycerol) containing 1-4% DMSO was titrated with the test compounds (60-150 µM in the same buffer containing 1-4% DMSO) in 26 injections (1x 1 µL, 25x 3-4 µL) with an injection interval of 150 s. As control experiments, the test compounds were titrated to the buffer, and the buffer was titrated to the Nurr1 LBD protein under otherwise identical conditions. Results were analyzed using NanoAnalyze software (version 3.11.0, TA Instruments, New Castle, DE) with independent binding models.

[4] = Determination of aqueous solubility; assay type: physicochemical; settings: water, 24 h, 25°C
Method: Determination of aqueous solubility. […] The mixture was agitated in a VWR Thermal Shake lite (VWR International GmbH, Darmstadt, Germany) for 24 h at 600 rpm and constant temperature of 25°C. The supersaturated mixtures were subsequently centrifuged at 23.300 rpm for 15 min (25 °C). Part of the supernatant was taken off for quantification by UV absorbance at 312 nm with external calibration. The external calibration samples contained 1% DMSO and the test samples were spiked with DMSO to 1% concentration right before the measurement. Absorbance was measured with a Tecan Spark luminometer (Tecan Deutschland GmbH, Crailsheim, Germany). The solubility test was repeated in three independent experiments, […]

NOR-1 = target: T3, NOR-1 (Homo sapiens, UniProt Q92570); assay: Gal4 hybrid reporter gene assay, selectivity profiling (NOR-1); assay type: cell-based; settings: result in words, at 10 µM
T3 construct: pFA-CMV-NOR-1-LBD; expressed in transfected cells; host or cells: HEK293T
T3 sequence (Q92570 394-623 limits assumed): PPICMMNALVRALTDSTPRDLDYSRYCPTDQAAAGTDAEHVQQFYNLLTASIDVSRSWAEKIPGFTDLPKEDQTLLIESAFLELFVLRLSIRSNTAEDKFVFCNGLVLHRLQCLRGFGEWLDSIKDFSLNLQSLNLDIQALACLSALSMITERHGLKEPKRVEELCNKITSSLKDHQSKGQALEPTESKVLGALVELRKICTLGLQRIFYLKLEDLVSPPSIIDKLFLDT

[5] = target: T4, Nurr1-RXR heterodimer (DR5) (Homo sapiens, UniProt P43354); assay: Full-length Nurr1 reporter gene assay, response element DR5 with RXRα; assay type: cell-based; settings: result in words, at 10 µM
T4 construct: The full length human nuclear receptor Nurr1 (pcDNA3.1-hNurr1-NE; Addgene plasmid #102363); NE (suffix in the plasmid name); host or cells: HEK293T
T4 sequence (P43354 whole entry): as the sequence (P43354 whole entry) above
T4 sequence (P19793 whole entry partner): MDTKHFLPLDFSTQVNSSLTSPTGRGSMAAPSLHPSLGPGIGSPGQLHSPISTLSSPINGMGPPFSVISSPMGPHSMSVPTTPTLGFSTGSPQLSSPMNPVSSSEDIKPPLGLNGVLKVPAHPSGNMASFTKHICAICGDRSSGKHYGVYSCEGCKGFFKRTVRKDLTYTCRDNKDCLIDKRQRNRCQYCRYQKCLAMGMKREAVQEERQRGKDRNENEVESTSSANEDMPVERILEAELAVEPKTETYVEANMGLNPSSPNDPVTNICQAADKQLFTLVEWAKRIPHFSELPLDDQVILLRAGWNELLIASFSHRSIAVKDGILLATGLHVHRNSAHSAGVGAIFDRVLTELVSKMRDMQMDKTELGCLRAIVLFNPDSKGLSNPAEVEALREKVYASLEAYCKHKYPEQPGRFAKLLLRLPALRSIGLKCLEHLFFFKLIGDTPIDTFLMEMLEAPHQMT
Description: (§1) Full-length Nurr1 reporter gene assays. Activation of full length human Nurr1 was studied in transiently transfected HEK293T cells using the reporter plasmids pFR-Luc-NBRE^14, pFR-Luc-POMC^14 or pFR-Luc-DR5^14 each containing one copy of the respective human Nurr1 response element NBRE Nl3, NurRE, or DR5. The full length human nuclear receptor Nurr1 (pcDNA3.1-hNurr1-NE; Addgene plasmid #102363) and, for DR5, RXRα (pSG5-hRXR)^44 were overexpressed. pRL-SV40 (Promega) was used for normalization of transfection efficacy and to observe test compound toxicity. […] After 24 h, medium was changed to Opti-MEM without supplements and cells were transiently transfected using Lipofectamine LTX reagent (invitrogen) according to the manufacturer's protocol. Five hours after transfection, cells were incubated with the test compounds in Opti-MEM supplemented with penicillin (100 U/mL), streptomycin (100 µg/mL) and 0.1% DMSO for 16 h before luciferase activity was measured using the Dual-Glo Luciferase Assay System (Promega) according to the manufacturer's protocol on a Tecan Spark luminometer (Tecan Deutschland GmbH). Firefly luminescence was divided by Renilla luminescence and multiplied by 1000 resulting in relative light units (RLU) to normalize for transfection efficiency and cell growth. Fold activation was obtained by dividing the mean RLU of test compound by the mean RLU of the untreated control. All samples were tested in at least three biologically independent experiments in duplicates. For dose-response curve fitting and calculation of EC50 values, the equation "[Agonist] vs. response -- Variable slope (four parameters)" was used in GraphPad Prism (version 7.00, GraphPad Software).

[6] = tested on: Nurr1-regulated tyrosine hydroxylase (TH), vesicular amino acid transporter 2 (VMAT2) and superoxide dismutase 2 (SOD2) in astrocytes (T98G); assay: Nurr1-regulated gene expression in T98G cells (qPCR); assay type: cell-based, human; settings: 10 µM
Nur77 = target: T5, Nur77 (Homo sapiens, UniProt P22736); assay: Gal4 hybrid reporter gene assay, selectivity profiling (Nur77); assay type: cell-based; settings: result in words, at 10 µM
T5 construct: expressed in transfected cells; host or cells: HEK293T
T5 sequence (P22736 360-595 limits assumed): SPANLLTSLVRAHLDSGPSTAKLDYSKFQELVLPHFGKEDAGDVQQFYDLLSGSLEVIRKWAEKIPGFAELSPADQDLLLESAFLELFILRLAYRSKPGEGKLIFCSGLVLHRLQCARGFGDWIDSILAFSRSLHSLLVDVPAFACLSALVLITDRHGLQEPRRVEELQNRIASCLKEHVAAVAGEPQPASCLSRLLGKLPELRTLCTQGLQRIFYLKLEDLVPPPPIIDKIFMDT
Method: Hybrid reporter gene assays. Nurr1 modulation was determined in a Gal4 hybrid reporter gene assay in HEK293T cells (German Collection of Microorganisms and Cell Culture GmbH, DSMZ) using pFR-Luc (Stratagene, La Jolla, CA, USA; reporter), pRL-SV40 (Promega, Madison, WI, USA; internal control) and pFA-CMV-hNurr1-LBD^14, coding for the hinge region and ligand binding domain of the canonical isoform of human Nurr1. […] After 24 h, medium was changed to Opti-MEM without supplements and cells were transiently transfected using Lipofectamine LTX reagent (Invitrogen, Carlsbad, CA, USA) according to the manufacturer's protocol. Five hours after transfection, cells were incubated with the test compounds in Opti-MEM supplemented with penicillin (100 U/mL), streptomycin (100 µg/mL) and 0.1% DMSO for 16 h before luciferase activity was measured using the Dual-Glo Luciferase Assay System (Promega) according to the manufacturer's protocol on a Tecan Spark luminometer (Tecan Deutschland GmbH, Crailsheim, Germany). Firefly luminescence was divided by Renilla luminescence and multiplied by 1000 resulting in relative light units (RLU) to normalize for transfection efficiency and cell growth. Fold activation was obtained by dividing the mean RLU of test compound by the mean RLU of the untreated control. All samples were tested in at least three biologically independent experiments in duplicates. […]

Nurr1 monomer (NBRE) = target: T6, Nurr1 monomer (NBRE) (Homo sapiens, UniProt P43354); assay: Full-length Nurr1 reporter gene assay, response element NBRE; assay type: cell-based; settings: result in words, at 10 µM
T6 construct: The full length human nuclear receptor Nurr1 (pcDNA3.1-hNurr1-NE; Addgene plasmid #102363); NE (suffix in the plasmid name); host or cells: HEK293T
T6 sequence (P43354 whole entry): as the sequence (P43354 whole entry) above
Description: as §1, with “Fold activation was obtained by dividing the mean RLU of test compound by the mean RLU of the untreated control. All samples were tested in at least three biologically independent experiments in duplicates. For dose-response curve fitting and calculation of EC50 values, the equation "[Agonist] vs. response -- Variable slope (four parameters)" was used in GraphPad Prism (version 7.00, GraphPad Software).” left out

Nurr1 [7] = target: T1, Nurr1; assay: Gal4-Nurr1 hybrid reporter gene assay in HEK293T cells; assay type: cell-based; set-up: expressed in transfected cells; host or cells: HEK293T
Method: Hybrid reporter gene assays. Nurr1 modulation was determined in a Gal4 hybrid reporter gene assay in HEK293T cells (German Collection of Microorganisms and Cell Culture GmbH, DSMZ) using pFR-Luc (Stratagene, La Jolla, CA, USA; reporter), pRL-SV40 (Promega, Madison, WI, USA; internal control) and pFA-CMV-hNurr1-LBD^14, coding for the hinge region and ligand binding domain of the canonical isoform of human Nurr1. […] After 24 h, medium was changed to Opti-MEM without supplements and cells were transiently transfected using Lipofectamine LTX reagent (Invitrogen, Carlsbad, CA, USA) according to the manufacturer's protocol. Five hours after transfection, cells were incubated with the test compounds in Opti-MEM supplemented with penicillin (100 U/mL), streptomycin (100 µg/mL) and 0.1% DMSO for 16 h before luciferase activity was measured using the Dual-Glo Luciferase Assay System (Promega) according to the manufacturer's protocol on a Tecan Spark luminometer (Tecan Deutschland GmbH, Crailsheim, Germany). Firefly luminescence was divided by Renilla luminescence and multiplied by 1000 resulting in relative light units (RLU) to normalize for transfection efficiency and cell growth. Fold activation was obtained by dividing the mean RLU of test compound by the mean RLU of the untreated control. All samples were tested in at least three biologically independent experiments in duplicates. For dose-response curve fitting and calculation of EC50 values, the equation "[Agonist] vs. response -- Variable slope (four parameters)" was used in GraphPad Prism (version 7.00, GraphPad Software, La Jolla, CA, USA). Selectivity profiling was performed with identical procedures using pFA-CMV-Nur77-LBD^14, pFA-CMV-NOR-1-LBD^14, pFA-CMV-THRα-LBD^39, pFA-CMV-RARα-LBD^40, pFA-CMV-PPARα-LBD^41, pFA-CMV-PPARγ-LBD^41, pFA-CMV-PPARδ-LBD^41, pFA-CMV-LXRα-LBD^37, pFA-CMV-FXR-LBD^42 and pFA-CMV-hRXRα-LBD^43.
Target sequence in this assay (P43354 360-595 limits assumed): as the sequence (P43354 360-595 limits assumed) above

Nurr1 homodimer (NurRE) = target: T7, Nurr1 homodimer (NurRE) (Homo sapiens, UniProt P43354); assay: Full-length Nurr1 reporter gene assay, response element NurRE; assay type: cell-based; settings: result in words, at 10 µM
T7 construct: The full length human nuclear receptor Nurr1 (pcDNA3.1-hNurr1-NE; Addgene plasmid #102363); host or cells: HEK293T
T7 sequence (P43354 whole entry): as the sequence (P43354 whole entry) above
Description: as §1, with “Fold activation was obtained by dividing the mean RLU of test compound by the mean RLU of the untreated control. All samples were tested in at least three biologically independent experiments in duplicates. For dose-response curve fitting and calculation of EC50 values, the equation "[Agonist] vs. response -- Variable slope (four parameters)" was used in GraphPad Prism (version 7.00, GraphPad Software).” left out

With `CCN(CC)Cc1cc(Nc2ccnc3cc(Cl)ccc23)ccc1O` [Compound 1, amodiaquine] as the compound, how does the EC50 (Nurr1 [1]) read?
The EC50 was about 20 µM.

And the “ligand efficiency (LE)” value (Nurr1 [2])?
The value was 0.26.

And the “size-independent ligand eff. (SILE)” value (Nurr1 [2])?
The value was 1.79.

Which stability [3] does the source give for `Cc1[nH]c2c(Cl)cccc2c1N` [Compound 6, 7-chloro-2-methyl-1H-indol-3-amine] here?
The stability was “not stable; also recorded: unstable”.

For `Cc1nc2c(Cl)cccn2c1NC(=O)c1ccc(-c2ccccc2)[nH]1` [Compound 29], which “Kd(Nurr1 LBD)” value (Nurr1 LBD) is on record?
Its value is “no detectable binding; also recorded: no binding ^b”.

And the aq. solubility [4]?
The aq. solubility was 4.1 µg/mL.

What about the “EC50(NOR-1)” value (NOR-1) of the same compound?
Its value is “no effect; also recorded: no activation (10 µM)”.

And the “EC50(DR5) [+0.1 µM BEX]” value [5]?
Its value is “no activation (10 µM)”.

And the “induction of Nurr1-regulated gene expression” value [6]?
The value was “no effect; also recorded: no induction”.

And the “EC50(Nur77)” value (Nur77)?
The value was “no effect; also recorded: no activation (10 µM)”.

What about the “EC50(NBRE)” value (Nurr1 monomer (NBRE)) of the same compound?
The value was “no activation (10 µM)”.

And the “less active than 36 as Nurr1 modulator” value (Nurr1 [7])?
Its value is “more than 100 fold”.

What about the “EC50(Nurr1) (max. activation)” value (Nurr1 [7]; result in words, at 10 µM) of the same compound?
Its value is “no Nurr1 agonism; also recorded: inactive (10 µM); also recorded: no activation (10 µM)”.

What about the “EC50(NurRE)” value (Nurr1 homodimer (NurRE)) of the same compound?
The value was “no activation (10 µM)”.
